From US10202342B2, “Targeted delivery of imaging probes for in vivo cellular imaging” (University of Maryland, Baltimore, priority 2008, dated 2019)

Tested on: cells
Assay: Intracellular retention of nitroxides (FIG. 7)
Type: cell-based
Text: The exponential life time (τ) is related to the half-life (t½): t½=0.693τ.
It is evident that nitroxide has a significant increase in retention time and approximately a 4-fold improvement over nitroxide and a 12 fold increase over nitroxide.

CC1(C)CC(CN(CC(=O)O)CC(=O)O)C(C)(C)N1[O] (stereo not drawn) [nitroxide [3], (2,2,5,5-tetramethylpyrrolidin-1-oxyl-3-ylmethyl)amine-N,N-diacetic acid]
intracellular retention life time (single-exponential fits), comparison in words (FIG. 7, nitroxides [1]-[3] compared): longest life time within the cells | intracellular retention time, improvement over nitroxide [2] (FIG. 7, retention within cells): ~4 fold | intracellular retention time, increase over nitroxide [1] (FIG. 7, retention within cells): ~12 fold
